Assay results published in patent US12612388B2, “Receptor-interacting protein 1 inhibitors including piperazine heterocyclic amide ureas” (SIRONAX LTD., priority 2020, dated 2026).

Each molecule was assayed on HT-29 cells (assay: Cellular RIP1 inhibitory activity: necroptosis of HT-29 cells induced by TNF-α/SMAC mimetic/zVAD-FMK, CellTiter-Glo viability). Conditions: Homo sapiens; HT-29 cells; TNF-α 10 ng/ml, SMAC mimetic 6 μM, zVAD-FMK 10 μM; 20 hours; geometric mean, 10 points, duplicates; read-out: EC50 (Cell activity; Necrosis or Necroptosis Inhibitory Activity).
Format: cell-based
Outline: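 HT-29 cells (~5,000/well) in FBS-free McCoy's 5A were driven into necroptosis with TNF-α (10 ng/ml), SMAC mimetic (6 μM) and zVAD-FMK (10 μM) alongside 10-point 1:3 compound dilutions for 20 h at 37 °C. Viability measured by CellTiter-Glo luminescence; geometric mean EC50 from duplicate dose-responses.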

Structure (SMILES) | EC50 [nM]
CN(C)C(=O)c1nc(N2CCN(C(=O)N3N=CC[C@H]3c3cc(F)cc(F)c3)CC2)ncc1F [Compound 5, 2-(4-(5-(3,5-difluorophenyl)-4,5-dihydro-1H-pyrazole-1-carbonyl)piperazin-1-yl)-5-fluoro-N,N-dimethylpyrimidine-4-carboxamide] | 0.1 to 100
O=C(c1nc(N2CCN(C(=O)N3N=CC[C@H]3c3cc(F)cc(F)c3)CC2)ncc1F)N1CCCC1 [Compound 8, (S)-(5-(3,5-difluorophenyl)-4,5-dihydro-1H-pyrazol-1-yl)(4-(5-fluoro-4-(pyrrolidine-1-carbonyl)pyrimidin-2-yl)piperazin-1-yl)methanone] | 0.1 to 100
CNC(=O)c1nc(N2CCN(C(=O)N3N=CC[C@H]3c3cc(F)cc(F)c3)CC2)ncc1F [Compound 4] | 0.1 to 100
NC(=O)[C@H]1CCN(C(=O)c2nc(N3CCN(C(=O)N4N=CC[C@H]4c4cc(F)cc(F)c4)CC3)ncc2F)C1 [Compound 26, (S)-1-(2-(4-((S)-5-(3,5-difluorophenyl)-4,5-dihydro-1H-pyrazole-1-carbonyl)piperazin-1-yl)-5-fluoropyrimidine-4-carbonyl)pyrrolidine-3-carboxamide] | 0.1 to 100
C=C1CN(C(=O)c2nc(N3CCN(C(=O)N4N=CC[C@H]4c4cc(F)cc(F)c4)CC3)ncc2F)C1 [Compound 55, (S)-(5-(3,5-difluorophenyl)-4,5-dihydro-1H-pyrazol-1-yl)(4-(5-fluoro-4-(3-methyleneazetidine-1-carbonyl)pyrimidin-2-yl)piperazin-1-yl)methanone] | 0.1 to 100
